Reference: PubChem BioAssay AID434951 (Broad Institute, 2010)
Active and inactive are the calls of the source.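 Rule for the calls: active = a fitted half-maximal concentration EC50 for the rise in nuclear signal no higher than ten times the top dose tested; inconclusive = flat fit with activity between 30% and 70%, or unusable fit; inactive = EC50 beyond ten times the top dose.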

Each compound was assayed against Hypoxia-inducible factor 1-alpha (Homo sapiens) (UniProt Q16665) (assay: HIF pathway activation, GFP-HIF1alpha translocation – imaging, fluorescence, U2OS GFP-HIF1alpha, confirmation (AID 434951)). Details: U2OS GFP-HIF1alpha nuclear intensity, high-content imaging.
Chain of Hypoxia-inducible factor 1-alpha (Homo sapiens) (Q16665 whole entry, looked up): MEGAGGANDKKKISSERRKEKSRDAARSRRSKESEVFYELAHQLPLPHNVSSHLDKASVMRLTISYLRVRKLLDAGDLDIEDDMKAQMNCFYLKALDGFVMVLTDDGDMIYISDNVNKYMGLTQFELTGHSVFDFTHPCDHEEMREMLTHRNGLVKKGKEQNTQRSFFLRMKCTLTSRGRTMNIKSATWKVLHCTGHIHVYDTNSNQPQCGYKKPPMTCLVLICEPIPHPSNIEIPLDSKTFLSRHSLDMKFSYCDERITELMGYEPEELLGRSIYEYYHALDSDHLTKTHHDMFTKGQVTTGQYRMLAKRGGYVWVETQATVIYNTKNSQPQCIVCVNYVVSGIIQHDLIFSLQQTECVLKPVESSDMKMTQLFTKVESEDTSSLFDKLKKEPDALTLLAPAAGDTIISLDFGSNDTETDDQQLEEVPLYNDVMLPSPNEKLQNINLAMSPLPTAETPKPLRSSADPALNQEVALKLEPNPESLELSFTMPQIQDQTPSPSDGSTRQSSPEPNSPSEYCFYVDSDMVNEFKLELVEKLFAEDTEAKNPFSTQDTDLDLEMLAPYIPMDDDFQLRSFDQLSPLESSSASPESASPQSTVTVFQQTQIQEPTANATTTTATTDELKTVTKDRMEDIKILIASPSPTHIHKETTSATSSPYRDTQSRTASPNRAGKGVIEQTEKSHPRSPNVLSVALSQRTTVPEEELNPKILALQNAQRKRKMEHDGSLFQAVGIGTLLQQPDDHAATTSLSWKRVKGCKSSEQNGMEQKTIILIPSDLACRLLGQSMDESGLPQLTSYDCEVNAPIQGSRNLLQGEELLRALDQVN
`COCCn1c(-c2ccc(OC)cc2)cnc1SCC(=O)Nc1ccc(OC)cc1OC` was tested, and the EC50 was > 35 µM (inactive). Compound `Oc1ccc2ccccc2c1N=Nc1nccs1` has an EC50 of 5.74 µM. With `Nc1ncnc2c1ncn2CCN1CCOCC1` the EC50 was > 35 µM (inactive). `Oc1ccc(CN2CCC(Cc3ccccc3)CC2)c2cccnc12` gave an EC50 of 5.17 µM. With `Cc1cccc(-c2noc(CN(C)S(=O)(=O)c3cc(Cl)ccc3Cl)n2)c1` the EC50 was > 35 µM (inactive). Compound `Cc1ccc(C)c(S(=O)(=O)N2CCN(Cc3ccc(O)c4ncccc34)CC2)c1` has an EC50 of 6.84 µM. In the case of `Cc1c(Cl)c([N+](=O)[O-])nn1CC(=O)NC12CC3CC(CC(C3)C1)C2`, the EC50 is reported as > 35 µM (inactive). With `CCOc1ccc(CCNC(=O)COC(=O)Cn2nc(C)c([N+](=O)[O-])c2C)cc1OCC` the EC50 was > 35 µM (inactive). In the case of `COc1ccc(C(=O)NCCCOC(=O)c2ccc(OC)cc2)cc1`, the EC50 is reported as > 35 µM (inactive). Compound `Cc1nc(C)c(C(=O)N/N=C/c2cc(Br)ccc2O)s1` has an EC50 of 7.18 µM. With `Cc1cccc(NC(=O)COc2cccc3c2CCN(C)C3=O)c1C` the EC50 was > 35 µM (inactive). With `COc1cc(C(=O)N2CCN(C(=O)Cc3ccccc3)CC2)cc(OC)c1OC` the EC50 was > 35 µM (inactive). `O=C1NC(=O)/C(=C/c2ccc(OS(=O)(=O)c3ccc(F)cc3F)cc2)N1` was tested, and the EC50 was > 35 µM (inactive). With `O=C(CSc1c[nH]c2ccccc12)NCc1ccc2c(c1)OCO2` the EC50 was > 35 µM (inactive). `O=C1CCCc2ccccc2N1Cc1ccc(F)cc1` was tested, and the EC50 was > 35 µM (inactive). `COc1ccc(CCNC(=O)CSc2nc(-c3ccc(OC)c(OC)c3)ccc2C#N)cc1` was tested, and the EC50 was > 35 µM (inactive). With `Cc1cc(OCC(=O)Nc2ccc3c(c2)OCCO3)cc(C)c1Cl` the EC50 was > 35 µM (inactive). `C/C(=N\Nc1ccc2nncn2n1)c1ccccn1` was tested, and the EC50 was 3.84 µM. In the case of `CCC(=O)N1CCc2cc(S(=O)(=O)NCCC(=O)N3CCN(c4cccc(OC)c4)CC3)ccc21`, the EC50 is reported as > 35 µM (inactive). `CCN1CCN(c2ncnc3ccc(Br)cc23)CC1` was tested, and the EC50 was > 35 µM (inactive). `CN(CC(=O)Nc1ccccc1Oc1ccccc1)Cc1ccccc1F` was tested, and the EC50 was > 35 µM (inactive). `COc1cccc(/C=N/NC(=O)CNC(=O)C(c2ccccc2)c2ccccc2)c1O` was tested, and the EC50 was > 35 µM (inactive). `CCn1ccnc1C(O)c1ccccc1OC` (stereo not drawn) was tested, and the EC50 was > 35 µM (inactive). With `O=C(NS(=O)(=O)c1ccc2c(c1)OCCO2)c1ccccc1` the EC50 was > 35 µM (inactive). `O=C(Nc1nc(-c2ccccn2)cs1)c1ccc(S(=O)(=O)N2CCCCC2)cc1` was tested, and the EC50 was 7.12 µM. `COc1ccc(Cc2nnc(SCC(=O)NC3CCCCC3)n2C)cc1` was tested, and the EC50 was > 35 µM (inactive). For `CCOc1ccc(NC(=O)COc2ccccc2)c([N+](=O)[O-])c1`, the EC50 was > 35 µM (inactive). For `Cc1noc(C(=O)Nc2sc3c(c2C#N)CCC3)c1Cl`, the EC50 was > 35 µM (inactive). In the case of `CCCCCCN1C=CC=C/C1=C/C=C(C#N)C#N`, the EC50 is reported as > 35 µM (inactive). `COC(=O)c1ccc(-n2cncn2)c([N+](=O)[O-])c1` was tested, and the EC50 was > 35 µM (inactive). In the case of `Cc1cccc(OCC(=O)NCC(=O)N/N=C/c2cccnc2)c1`, the EC50 is reported as > 35 µM (inactive). With `c1ccc(CSc2ccc(-c3ccccn3)nn2)cc1` the EC50 was 5.92 µM. With `COc1cccc(C2C3=C(N=c4s/c(=C\c5ccccc5O)c(=O)n42)c2ccccc2CC3)c1OC` (stereo not drawn) the EC50 was > 35 µM (inactive). `Cc1nc2ccccc2n2c(-c3ccccc3)c3c(=O)n(C)c(=O)n(C)c3c12` was tested, and the EC50 was > 35 µM (inactive). `CN(CC(=O)Nc1ccc(F)c(F)c1F)C(=O)/C=C/c1ccc(Cl)cc1` was tested, and the EC50 was > 35 µM (inactive). For `Oc1ccc(Br)cc1/C=N/Nc1ccccn1`, the EC50 was 7.01 µM. `COc1cccc(C(=O)N/N=C(/c2ccccc2)c2ccccn2)c1` was tested, and the EC50 was 6.04 µM. In the case of `CCn1cc(C(=O)NCC(OC)OC)c(=O)c2cc(S(=O)(=O)N3CCC(C)CC3)ccc21`, the EC50 is reported as > 35 µM (inactive). For `Cc1ccc(C2(O)CN(c3ccccc3C)C3=[N+]2CCS3)cc1` (stereo not drawn), the EC50 was > 35 µM (inactive). With `COc1ccc2[nH]c(C(=O)N/N=C/c3ccccc3OC)cc2c1` the EC50 was > 35 µM (inactive). With `FC(F)Oc1ccc(NC(=S)Nc2ccc3cn[nH]c3c2)cc1` the EC50 was > 35 µM (inactive). Compound `CCN(CC)c1ccc(/C=N/NC(=O)c2nnn(-c3nonc3N)c2C(C)C)c(O)c1` has an EC50 of 3.55 µM. In the case of `CCOc1ccc(-c2c(C(=O)N/N=C/c3cccnc3)nnn2-c2nonc2N)cc1`, the EC50 is reported as > 35 µM (inactive). `CC1CN(c2nc3ccccn3c(=O)c2/C=C(\C#N)C(=O)N2CCOCC2)CC(C)O1` (stereo not drawn) was tested, and the EC50 was > 35 µM (inactive). `Cc1ccccc1NC(=O)CN(C)S(=O)(=O)c1ccc(-c2ccc(=O)[nH]n2)s1` was tested, and the EC50 was > 35 µM (inactive). For `CN(CC1CCCO1)S(=O)(=O)c1ccc(C(=O)Nc2nccs2)cc1` (stereo not drawn), the EC50 was > 35 µM (inactive). Work on `CC(C)(C)c1csc(NNC(=O)c2ccc(Br)cc2)n1` yielded an EC50 of 29 µM. `COc1ccc(/C=N/NC(=O)c2nc(-c3ccccc3)n(-c3ccccc3)n2)c(O)c1` was tested, and the EC50 was 25.4 µM. In the case of `CC1CCN(S(=O)(=O)c2ccc3c4c2CC(=O)N4CC(C)S3)CC1` (stereo not drawn), the EC50 is reported as > 35 µM (inactive). With `O=C(N/N=C/c1cc(Br)ccc1O)c1ccncc1` the EC50 was > 35 µM (inactive). `CCCC(=O)NC(c1ccccc1Cl)c1ccc2cccnc2c1O` (stereo not drawn) was tested, and the EC50 was 6.66 µM. In the case of `COc1ccccc1N=Nc1ccc(O)c2ncccc12`, the EC50 is reported as 7.58 µM. With `O=[N+]([O-])c1cc(S(=O)(=O)c2ccc(O)c([N+](=O)[O-])c2)ccc1O` the EC50 was > 35 µM (inactive). `Cc1cccc2sc(NNC(=O)c3ccc(S(=O)(=O)N4CCc5ccccc5C4)cc3)nc12` showed an EC50 of 11.2 µM. In the case of `COc1ccc(N/N=C(/N=Nc2nc(C)cc(=O)[nH]2)c2ccccc2)cc1`, the EC50 is reported as 0.856 µM. `CCN(CC)c1ccc(/C=N/NC(=O)c2ccco2)c(O)c1` was tested, and the EC50 was 6.97 µM. In the case of `COc1ccc(CCNC(=O)CC(NC(=O)c2ccccc2Cl)c2ccccc2)cc1` (stereo not drawn), the EC50 is reported as > 35 µM (inactive). For `Cc1ccnc(NS(=O)(=O)c2cc([N+](=O)[O-])ccc2C)c1`, the EC50 was > 35 µM (inactive). In the case of `CN(C)c1ccc(S(=O)(=O)NCC(=O)OCC(=O)Nc2cc(Cl)cc(Cl)c2)cc1[N+](=O)[O-]`, the EC50 is reported as > 35 µM (inactive). In the case of `CCN(CC)CCC(=O)Nc1cccc2c1C(=O)c1ccccc1C2=O`, the EC50 is reported as > 35 µM (inactive). For `CCC(Sc1nc(C)cc(=O)[nH]1)C(=O)Nc1sc2c(c1C#N)CCCC2` (stereo not drawn), the EC50 was > 35 µM (inactive). In the case of `CCCCCN(C(=O)CCC(=O)OCC(=O)c1ccc(C(C)CC)cc1)c1c(N)n(CCCC)c(=O)[nH]c1=O` (stereo not drawn), the EC50 is reported as > 35 µM (inactive). In the case of `Cc1noc(C)c1COC(=O)C1CC(O)CN1S(=O)(=O)c1ccc(Cl)cc1` (stereo not drawn), the EC50 is reported as > 35 µM (inactive). Work on `Oc1c(CN2CCN(c3ccc(F)cc3)CC2)cc(Cl)c2cccnc12` yielded an EC50 of 6.07 µM. In the case of `O=C(CS(=O)(=O)c1ccccc1)Nc1ccc(N2CCOCC2)cc1`, the EC50 is reported as > 35 µM (inactive). With `Cc1ccc(C)c(SCC(=O)OCC(=O)N2CC(C)OC(C)C2)c1` (stereo not drawn) the EC50 was > 35 µM (inactive). For `COc1ccc(NC(=S)NCc2cccnc2)cc1`, the EC50 was > 35 µM (inactive). In the case of `CCN(CC)CCn1nc2c3c(cccc3c1=O)-c1ccccc1-2`, the EC50 is reported as > 35 µM (inactive). With `O=C(N/N=C/c1c(O)ccc2ccccc12)c1ccc(Br)o1` the EC50 was 12.3 µM. In the case of `COc1ccc(CCNC(=O)c2nnn(CC(=O)Nc3c(C)cc(C)cc3C)c2N)cc1OC`, the EC50 is reported as > 35 µM (inactive). `CC(C)C(=O)N1CCN(c2nc3ccc(Cl)cc3s2)CC1` was tested, and the EC50 was > 35 µM (inactive). Compound `O=C(NCC1CCCO1)c1cc(-c2ccccc2F)no1` (stereo not drawn) has an EC50 of 21.7 µM. For `CCOC(=O)c1c(C)nc2cc(C)ccn12`, the EC50 was > 35 µM (inactive).
